In PMC4264749, “Phlebotomy Treatment for Elimination of Perfluoroalkyl Acids in a Highly Exposed Family: A Retrospective Case-Series” (PLoS ONE, 2014):
Like-named read-outs stand apart in the source and are kept apart here.

What was measured:
[1] = parameters: method as in PMID 17805419; conditions: cited from earlier work
[2] = Serum PFAA concentrations in family members during intermittent phlebotomy (HPLC-MS/MS); assay type: in vivo, human; conditions: for Serum concentration before treatment: before phlebotomy; for Serum concentration after treatment: after phlebotomy
From the text: After receiving informed consent, intermittent phlebotomy was undertaken at an overall rate (Table 2) that was equal to or less than the maximum rate of what is done for routine blood donations at the Canadian Blood Services: ∼500 ccs of whole blood every 56 days. Frequency and timing of blood removal was not consistent between family members because of their personal availability, success at each time of venesection, and compliance of each participant. […] Mineral supplementation was discussed and was taken by each participant.
All serum samples were submitted to ALS Laboratories (Edmonton, AB) for quantitative analysis of PFAAs (see Supporting Information, S1 Table). Samples were extracted by solid phase extraction and concentrations of PFHxS, PFOS, and PFOA were determined using high performance liquid chromatography/tandem mass spectrometry. Formic acid (0.1 M) along with a mixture of isotopically labeled PFAAs (Wellington Laboratories, Guelph, Ontario) were added to 1.0 mL of serum. The mixture was vortexed, sonicated, and subjected to solid phase extraction. The extract was concentrated to 100 uL and an instrument performance internal standard was added along with 200 uL of 90% 20 mM aqueous acetic acid/10% methanol. Procedural blanks were run with each set of samples, and method limits of quantification (LOQ) were 0.5 ng/mL for each analyte. For the few PFAA levels that fell below this LOQ (shown as hollow circles in Figs. 1–3), LOQ/√2 (i.e. 0.35 ng/mL) was substituted for purposes of data analysis. PFHxS, PFOS, and PFOA levels in all participating family members were >LOQ throughout the intervention except for 3 PFOS measurements out of 16 total measurements in the 3rd child and one PFOA measurement out of 9 total measurements in the […]. Written informed consent was given by participants (or parents in the case of children) for their clinical records to be used in this study.

[3] = parameters: method as in earlier work; conditions: 2009–2011; cited from earlier work
[4] = Apparent elimination half-life (HLapp) and phlebotomy efficiency coefficient in treated family members; assay type: in vivo, human; conditions: family members with regular phlebotomy, except parent
From the text: To evaluate the effect of phlebotomy, versus the expected rate of intrinsic elimination, we graphically and statistically compared the observed decreasing trends in each family member (fitted to a simple exponential decay model) with reference population elimination kinetics. Specifically, for the reference population of occupationally exposed retirees, we considered: i) the 95% confidence interval of the geometric mean elimination rate for each PFAA, and ii) the fastest individual rate of elimination rate among the reference population. For comparative purposes, the concentration of each PFAA in serum on the first day of the intervention was taken as time zero, and the models were forced through this starting point.
One metric that was calculated to compare the efficiency of the phlebotomy for removal of different PFAAs in each family member was termed the phlebotomy efficiency coefficient (EC). This was based on the subtractive difference between HLapp (yrs) in each treated family member and the geometric mean HLin (yrs) of the reference population according to Equation 1 . [drawing 1] (1)

[5] = parameters: method as in PMID 23980546; conditions: urinary excretion, China, cited from earlier work

## O=S(=O)(O)C(F)(F)C(F)(F)C(F)(F)C(F)(F)C(F)(F)C(F)(F)C(F)(F)C(F)(F)F [PFOS, perfluoroctane sulfonate]
[1]; reference population of occupationally exposed retirees (26 individuals)
  HLin of fastest eliminator in the reference population: 2.4 yrs
[1]; reference population of occupationally exposed retirees
  95% confidence interval of the geometric mean HLin: 4.0–5.8 yrs
[1]; serum, highly contaminated retirees >55 yrs, previously occupationally exposed
  intrinsic human elimination half-life (HLin): 5.4 years
[1]; serum, retirees >55 yrs, previously occupationally exposed
  HLin, 95% confidence interval: 3.9–6.9 yrs
[2]; 1st Child
  Serum concentration before treatment: 19.3 ng/mL
[2]; 1st Child, sampling date 2009.10.12
  Serum concentration: 14.3 ng/mL
[2]; 1st Child, sampling date 2009.12.24
  Serum concentration: 16.1 ng/mL
[2]; 1st Child, sampling date 2009.6.9
  Serum concentration: 19.3 ng/mL
[2]; 1st Child, sampling date 2009.9.9
  Serum concentration: 14.8 ng/mL
[2]; 1st Child, sampling date 2010.10.14
  Serum concentration: 0.73 ng/mL
[2]; 1st Child, sampling date 2010.1.17
  Serum concentration: 11.3 ng/mL
[2]; 1st Child, sampling date 2010.2.11
  Serum concentration: 6.84 ng/mL
[2]; 1st Child, sampling date 2010.4.14
  Serum concentration: 17.9 ng/mL
[2]; 1st Child, sampling date 2011.12.5
  Serum concentration: 0.93 ng/mL
[2]; 1st Child, sampling date 2011.5.17, LOD=0.5ng/mL
  Serum concentration: <LOD
[2]; 1st Child, sampling date 2011.8.12, LOD=0.5ng/mL
  Serum concentration: <LOD
[2]; 1st Child, sampling date 2012.12.28, LOD=0.5ng/mL
  Serum concentration: <LOD
[2]; 1st Child, sampling date 2012.4.24
  Serum concentration: 2.12 ng/mL
[2]; 1st Child, sampling date 2012.8.21
  Serum concentration: 1.44 ng/mL
[2]; 1st Child, sampling date 2013.3.30
  Serum concentration: 0.61 ng/mL
[2]; 1st Child, sampling date 2013.7.30
  Serum concentration: 1.59 ng/mL
[2]; 2nd Child
  Serum concentration before treatment: 59.7 ng/mL
[2]; 2nd Child, sampling date 2009.10.24
  Serum concentration: 44.7 ng/mL
[2]; 2nd Child, sampling date 2009.6.6
  Serum concentration: 59.7 ng/mL
[2]; 2nd Child, sampling date 2009.7.2
  Serum concentration: 51.9 ng/mL
[2]; 2nd Child, sampling date 2009.7.30
  Serum concentration: 51.9 ng/mL
[2]; 2nd Child, sampling date 2009.8.24
  Serum concentration: 67.8 ng/mL
[2]; 2nd Child, sampling date 2009.9.27
  Serum concentration: 41.4 ng/mL
[2]; 2nd Child, sampling date 2010.1.3
  Serum concentration: 36.6 ng/mL
[2]; 2nd Child, sampling date 2010.2.15
  Serum concentration: 47.7 ng/mL
[2]; 2nd Child, sampling date 2011.10.2
  Serum concentration: 1.8 ng/mL
[2]; 2nd Child, sampling date 2011.12.24
  Serum concentration: 13.9 ng/mL
[2]; 2nd Child, sampling date 2011.4.27
  Serum concentration: 7.0 ng/mL
[2]; 2nd Child, sampling date 2011.8.14
  Serum concentration: 4.6 ng/mL
[2]; 2nd Child, sampling date 2012.12.24
  Serum concentration: 5.5 ng/mL
[2]; 2nd Child, sampling date 2012.4.6
  Serum concentration: 12.2 ng/mL
[2]; 2nd Child, sampling date 2013.5.11.
  Serum concentration: 9.2 ng/mL
[2]; 2nd Child, sampling date 2013.7.15
  Serum concentration: 9.0 ng/mL
[2]; 3rd Child
  Serum concentration before treatment: 87.3 ng/mL
[2]; 3rd Child, sampling date 2009.10.11
  Serum concentration: 107.0 ng/mL
[2]; 3rd Child, sampling date 2009.12.16
  Serum concentration: 48.9 ng/mL
[2]; 3rd Child, sampling date 2009.6.1
  Serum concentration: 87.3 ng/mL
[2]; 3rd Child, sampling date 2009.7.4
  Serum concentration: 102.9 ng/mL
[2]; 3rd Child, sampling date 2009.8.7
  Serum concentration: 76.5 ng/mL
[2]; 3rd Child, sampling date 2009.9.7
  Serum concentration: 113.0 ng/mL
[2]; 3rd Child, sampling date 2010.1.24
  Serum concentration: 58.8 ng/mL
[2]; 3rd Child, sampling date 2010.3.12
  Serum concentration: 66.3 ng/mL
[2]; 3rd Child, sampling date 2010.5.23
  Serum concentration: 52.8 ng/mL
[2]; 3rd Child, sampling date 2011.1.6
  Serum concentration: 18.6 ng/mL
[2]; 3rd Child, sampling date 2011.11.26
  Serum concentration: 9.2 ng/mL
[2]; 3rd Child, sampling date 2011.2.24
  Serum concentration: 11.9 ng/mL
[2]; 3rd Child, sampling date 2011.4.30
  Serum concentration: 12.1 ng/mL
[2]; 3rd Child, sampling date 2011.6.13
  Serum concentration: 11.5 ng/mL
[2]; 3rd Child, sampling date 2011.9.27
  Serum concentration: 4.8 ng/mL
[2]; 3rd Child, sampling date 2012.10.16
  Serum concentration: 17.1 ng/mL
[2]; 3rd Child, sampling date 2012.1.8
  Serum concentration: 20.8 ng/mL
[2]; 3rd Child, sampling date 2012.12.9
  Serum concentration: 10.5 ng/mL
[2]; 3rd Child, sampling date 2012.3.4
  Serum concentration: 25.4 ng/mL
[2]; 3rd Child, sampling date 2012.4.28
  Serum concentration: 19.8 ng/mL
[2]; 3rd Child, sampling date 2013.10.27
  Serum concentration: 12.2 ng/mL
[2]; 3rd Child, sampling date 2013.2.5
  Serum concentration: 8.8 ng/mL
[2]; 3rd Child, sampling date 2013.3.30
  Serum concentration: 8.0 ng/mL
[2]; 3rd Child, sampling date 2013.5.5
  Serum concentration: 12.8 ng/mL
[2]; 3rd Child, sampling date 2013.7.25
  Serum concentration: 13.4 ng/mL
[2]; 3rd Child, sampling date 2013.9.8
  Serum concentration: 12.0 ng/mL
[2]; 3 youngest children
  starting serum concentration relative to 95th percentile among Canadians: 3–5 fold
[2]; 4th Child
  Serum concentration after treatment: 5.0 ng/mL
  Serum concentration before treatment: 62.4 ng/mL
[2]; 4th Child, sampling date 2010.1.24
  Serum concentration: 26.8 ng/mL
[2]; Average of 6 family members
  Serum concentration after treatment: 6.7 ng/mL
  Serum concentration before treatment: 43.4 ng/mL
[2]; Parent one
  Serum concentration before treatment: 15.1 ng/mL
[2]; Parent one, sampling date 2009.10.11
  Serum concentration: 8.8 ng/mL
[2]; Parent one, sampling date 2009.10.12
  Serum concentration: 9.2 ng/mL
[2]; Parent one, sampling date 2009.11.12
  Serum concentration: 11.0 ng/mL
[2]; Parent one, sampling date 2009.12.14
  Serum concentration: 8.6 ng/mL
[2]; Parent one, sampling date 2009.2.2
  Serum concentration: 15.1 ng/mL
[2]; Parent one, sampling date 2009.5.18
  Serum concentration: 13.2 ng/mL
[2]; Parent one, sampling date 2009.6.1
  Serum concentration: 11.8 ng/mL
[2]; Parent one, sampling date 2009.7.4
  Serum concentration: 9.8 ng/mL
[2]; Parent one, sampling date 2009.9.1
  Serum concentration: 11.3 ng/mL
[2]; Parent one, sampling date 2010.10.10
  Serum concentration: 6.1 ng/mL
[2]; Parent one, sampling date 2010.1.17
  Serum concentration: 8.6 ng/mL
[2]; Parent one, sampling date 2010.3.13
  Serum concentration: 6.8 ng/mL
[2]; Parent one, sampling date 2011.1.6
  Serum concentration: 2.3 ng/mL
[2]; Parent one, sampling date 2011.11.26
  Serum concentration: 1.4 ng/mL
[2]; Parent one, sampling date 2011.2.24
  Serum concentration: 2.1 ng/mL
[2]; Parent one, sampling date 2011.4.30
  Serum concentration: 1.5 ng/mL
[2]; Parent one, sampling date 2011.6.22
  Serum concentration: 1.6 ng/mL
[2]; Parent one, sampling date 2011.8.4
  Serum concentration: 1.3 ng/mL
[2]; Parent one, sampling date 2011.9.27
  Serum concentration: 0.5 ng/mL
[2]; Parent one, sampling date 2012..12.28
  Serum concentration: 0.66 ng/mL
[2]; Parent one, sampling date 2012.1.14
  Serum concentration: 3.8 ng/mL
[2]; Parent one, sampling date 2012.11.1
  Serum concentration: 1.7 ng/mL
[2]; Parent one, sampling date 2012.3.4
  Serum concentration: 3.7 ng/mL
[2]; Parent one, sampling date 2012.4.29
  Serum concentration: 2.7 ng/mL
[2]; Parent one, sampling date 2012.7.8
  Serum concentration: 3.1 ng/mL
[2]; Parent one, sampling date 2012.8.21
  Serum concentration: 3.1 ng/mL
[2]; Parent one, sampling date 2013.10.27
  Serum concentration: 1.4 ng/mL
[2]; Parent one, sampling date 2013.2.18
  Serum concentration: 1.3 ng/mL
[2]; Parent one, sampling date 2013.3.30
  Serum concentration: 1.5 ng/mL
[2]; Parent one, sampling date 2013.5.11
  Serum concentration: 2.5 ng/mL
[2]; Parent one, sampling date 2013.7.15
  Serum concentration: 2.3 ng/mL
[2]; Parent one, sampling date 2013.9.8
  Serum concentration: 1.4 ng/mL
[2]; Parent two
  Serum concentration before treatment: 16.3 ng/mL
[2]; Parent two, sampling date 2009.6.1
  Serum concentration: 16.3 ng/mL
[2]; Parent two, sampling date 2009.7.7
  Serum concentration: 10.9 ng/mL
[2]; Parent two, sampling date 2009.8.24
  Serum concentration: 10.4 ng/mL
[2]; Parent two, sampling date 2010.1.3
  Serum concentration: 5.7 ng/mL
[2]; Parent two, sampling date 2010.4.11, LOD=0.5ng/mL
  Serum concentration: 4.4 ng/mL
[2]; Parent two, sampling date 2012.3.13
  Serum concentration: 4.1 ng/mL
[2]; Parent two, sampling date 2013.1.1
  Serum concentration: 2.5 ng/mL
[2]; Parent two, sampling date 2013.10.6
  Serum concentration: 11.0 ng/mL
[2]; Parent two, sampling date 2013.6.22
  Serum concentration: 3.4 ng/mL
[3]
  95th percentile of serum concentration among Canadians: 18 ng/mL
[4]
  HLapp compared with geometric mean HLin of reference population: significantly shorter
[5]; males and post-menopausal females
  HLapp: 27 years
[5]; reproductive-aged females
  HLapp: 6.2 years
